Assay results: the supplement of paper PMC11061612

Tests used:
Experiment in all cases: combination Emax (second highest fraction inhibited in the dose matrix, 72 h); higher = more inhibition; extreme values may be limits of the assay
[1] = system: SNG-M (Endometrial Carcinoma)
Summary of the method: (§1)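 Cell lines grown in DMEM/F12 or RPMI with 10% FBS were plated in 1536-well plates and held 24 hours at 37°C, 5% CO2 before 72 hours of exposure to two-drug dose matrices, with DMSO typically at 0.2%. CellTiter-Glo 2.0 luminescence gave viability, which was converted to inhibition. Vehicle wells were set to 0 and blank wells to 1. Combination Emax is the second-highest inhibition in the matrix, and Bliss excess is the observed combination effect minus the expected EA + EB − EA·EB, where EA and EB are the single-agent effects.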

D-392MG (Glioblastoma) = system: D-392MG (Glioblastoma)
Summary of the method: as §1

[2] = system: D-283MED (Other Solid Carcinomas)
Summary of the method: as §1

[3] = system: YT (Other Blood Carcinomas)
Summary of the method: as §1

[4] = system: SLVL (B-Cell Non-Hodgkin's Lymphoma)
Summary of the method: as §1

[5] = system: SK-UT-1 (Other Solid Carcinomas)
Summary of the method: as §1

[6] = system: SK-LMS-1 (Other Solid Carcinomas)
Summary of the method: as §1

[7] = system: FU-OV-1 (Ovarian Carcinoma)
Summary of the method: as §1

EW-22 (Ewing's Sarcoma) = system: EW-22 (Ewing's Sarcoma)
Summary of the method: as §1

HCC38 (Breast Carcinoma) = system: HCC38 (Breast Carcinoma)
Summary of the method: as §1

[8] = system: WSU-DLCL2 (B-Cell Non-Hodgkin's Lymphoma)
Summary of the method: as §1

[9] = system: P31-FUJ (Acute Myeloid Leukemia)
Summary of the method: as §1

[10] = system: BICR78 (Oral Cavity Carcinoma)
Summary of the method: as §1

[11] = system: NOMO-1 (Acute Myeloid Leukemia)
Summary of the method: as §1

[12] = system: DOK (Oral Cavity Carcinoma)
Summary of the method: as §1

Saos-2 (Osteosarcoma) = system: Saos-2 (Osteosarcoma)
Summary of the method: as §1

SK-MEL-1 (Melanoma) = system: SK-MEL-1 (Melanoma)
Summary of the method: as §1

[13] = system: SW948 (Colorectal Carcinoma)
Summary of the method: as §1

[14] = system: HLE (Hepatocellular Carcinoma)
Summary of the method: as §1

H4 (Low Grade Glioma) = system: H4 (Low Grade Glioma)
Summary of the method: as §1

O=C(c1cc(Cc2n[nH]c(=O)c3ccccc23)ccc1F)N1CCN(C(=O)C2CC2)CC1 [Olaparib] + COc1nnc2ccc(N3CCC(c4ccc(OCCN5CCN(C)C(=O)[C@H]5C)cc4)CC3)nn12 [AZD5153] (first compound max 10 µM, 7x7, partner max 1 µM)
combination Emax [1]: 0.47 | combination Emax (D-392MG (Glioblastoma)): 0.405 | combination Emax [2]: 0.881 | combination Emax [3]: 0.53 | combination Emax [4]: 0.685 | combination Emax [5]: 0.559 | combination Emax [6]: 0.544 | combination Emax [7]: 0.59 | combination Emax (EW-22 (Ewing's Sarcoma)): 0.909 | combination Emax (HCC38 (Breast Carcinoma)): 0.412 | combination Emax [8]: 0.949 | combination Emax [9]: 0.57 | combination Emax [10]: 0.41 | combination Emax [11]: 0.939 | combination Emax [12]: 0.445 | combination Emax (Saos-2 (Osteosarcoma)): 0.454 | combination Emax (SK-MEL-1 (Melanoma)): 0.303 | combination Emax [13]: 0.428 | combination Emax [14]: 0.338 | combination Emax (H4 (Low Grade Glioma)): 0.658

O=C(c1cc(Cc2n[nH]c(=O)c3ccccc23)ccc1F)N1CCN(C(=O)C2CC2)CC1 [Olaparib] + Cc1c2c(nn1C)CSCc1cc(n(C)n1)CSc1cc(c3ccccc3c1)OCCCc1c(C(=O)O)n(C)c3c-2c(Cl)ccc13 [AZD5991] (first compound max 10 µM, 7x7, partner max 1 µM)
combination Emax [1]: 0.234 | combination Emax (D-392MG (Glioblastoma)): 0.142 | combination Emax [2]: 0.9 | combination Emax [3]: 1 | combination Emax [4]: 0.362 | combination Emax [5]: 0.109 | combination Emax [6]: 0.165 | combination Emax [7]: 0.199 | combination Emax (EW-22 (Ewing's Sarcoma)): 0.93 | combination Emax (HCC38 (Breast Carcinoma)): 0.156 | combination Emax [8]: 0.996 | combination Emax [9]: 0.964 | combination Emax [10]: 0.0524 | combination Emax [11]: 0.771 | combination Emax [12]: 0.381 | combination Emax (Saos-2 (Osteosarcoma)): 0.384 | combination Emax (SK-MEL-1 (Melanoma)): 0.127 | combination Emax [13]: 0.158 | combination Emax [14]: 0.157 | combination Emax (H4 (Low Grade Glioma)): 0.393

N#Cc1cnc(Nc2cc(NC[C@H]3CNCCO3)c(C(F)(F)F)cn2)cn1 [SRA737] + C=CCn1c(=O)c2cnc(Nc3ccc(N4CCN(C)CC4)cc3)nc2n1-c1cccc(C(C)(C)O)n1 [AZD1775] (first compound max 10 µM, partner max 1 µM)
combination Emax [1]: 0.883 | combination Emax (D-392MG (Glioblastoma)): 0.518 | combination Emax [2]: 1 | combination Emax [3]: 1 | combination Emax [4]: 0.935 | combination Emax [5]: 0.843 | combination Emax [6]: 0.649 | combination Emax [7]: 0.632 | combination Emax (EW-22 (Ewing's Sarcoma)): 0.873 | combination Emax (HCC38 (Breast Carcinoma)): 0.576 | combination Emax [8]: 1 | combination Emax [9]: 0.973 | combination Emax [10]: 0.561 | combination Emax [11]: 0.988 | combination Emax [12]: 0.481 | combination Emax (Saos-2 (Osteosarcoma)): 0.811 | combination Emax (SK-MEL-1 (Melanoma)): 0.277 | combination Emax [13]: 0.807 | combination Emax [14]: 0.485 | combination Emax (H4 (Low Grade Glioma)): 0.792

N#Cc1cnc(Nc2cc(NC[C@H]3CNCCO3)c(C(F)(F)F)cn2)cn1 [SRA737] + CCc1c2c(nc3ccc(O)cc13)-c1cc3c(c(=O)n1C2)COC(=O)[C@]3(O)CC [SN-38] (first compound max 10 µM, 7x7, partner max 0.3 µM)
combination Emax [1]: 0.786 | combination Emax (D-392MG (Glioblastoma)): 0.453 | combination Emax [2]: 0.994 | combination Emax [3]: 0.987 | combination Emax [4]: 0.945 | combination Emax [5]: 0.943 | combination Emax [6]: 0.89 | combination Emax [7]: 0.495 | combination Emax (EW-22 (Ewing's Sarcoma)): 0.932 | combination Emax (HCC38 (Breast Carcinoma)): 0.682 | combination Emax [8]: 1 | combination Emax [9]: 0.984 | combination Emax [10]: 0.854 | combination Emax [11]: 0.997 | combination Emax [12]: 0.582 | combination Emax (Saos-2 (Osteosarcoma)): 0.948 | combination Emax (SK-MEL-1 (Melanoma)): 0.486 | combination Emax [13]: 0.834 | combination Emax [14]: 0.798 | combination Emax (H4 (Low Grade Glioma)): 0.832

N#Cc1cnc(Nc2cc(NC[C@H]3CNCCO3)c(C(F)(F)F)cn2)cn1 [SRA737] + Nc1ccn([C@@H]2O[C@H](CO)[C@@H](O)C2(F)F)c(=O)n1 [Gemcitabine] (first compound max 10 µM, 7x7, partner max 0.3 µM)
combination Emax [1]: 0.869 | combination Emax (D-392MG (Glioblastoma)): 0.611 | combination Emax [2]: 1 | combination Emax [3]: 1 | combination Emax [4]: 0.961 | combination Emax [5]: 0.957 | combination Emax [6]: 0.855 | combination Emax [7]: 0.584 | combination Emax (EW-22 (Ewing's Sarcoma)): 0.93 | combination Emax (HCC38 (Breast Carcinoma)): 0.731 | combination Emax [8]: 1 | combination Emax [9]: 1 | combination Emax [10]: 0.782 | combination Emax [11]: 1 | combination Emax [12]: 0.704 | combination Emax (Saos-2 (Osteosarcoma)): 0.817 | combination Emax (SK-MEL-1 (Melanoma)): 0.482 | combination Emax [13]: 0.828 | combination Emax [14]: 0.773 | combination Emax (H4 (Low Grade Glioma)): 0.953

CC1(C)CCC(CN2CCN(c3ccc(C(=O)NS(=O)(=O)c4ccc(NCC5CCOCC5)c([N+](=O)[O-])c4)c(Oc4cnc5[nH]ccc5c4)c3)CC2)=C(c2ccc(Cl)cc2)C1 [Venetoclax] + CS(=O)(=O)CCNCc1ccc(-c2ccc3ncnc(Nc4ccc(OCc5cccc(F)c5)c(Cl)c4)c3c2)o1 [Lapatinib] (first compound max 1 µM, 7x7, partner max 10 µM)
combination Emax [1]: 0.247 | combination Emax (D-392MG (Glioblastoma)): 0.0713 | combination Emax [2]: 0.927 | combination Emax [3]: 0.295 | combination Emax [4]: 0.26 | combination Emax [5]: 0.458 | combination Emax [6]: 0.212 | combination Emax [7]: 0.324 | combination Emax (EW-22 (Ewing's Sarcoma)): 0.214 | combination Emax (HCC38 (Breast Carcinoma)): 0.169 | combination Emax [8]: 0.798 | combination Emax [9]: 0.581 | combination Emax [10]: 0.364 | combination Emax [11]: 0.319 | combination Emax [12]: 0.645 | combination Emax (Saos-2 (Osteosarcoma)): 0.214 | combination Emax (SK-MEL-1 (Melanoma)): 0.327 | combination Emax [13]: 0.352 | combination Emax [14]: 0.137 | combination Emax (H4 (Low Grade Glioma)): 0.171
